This passage reports Change and IC50 results from ChEMBL document CHEMBL1152019, “A series of conformationally and sterically constrained analogs of N-phenyl-N-aralkylurea ACAT inhibitors” (Bioorg Med Chem Lett, 1995).

For orientation: IC50 means the point on the concentration scale where inhibition reaches its midpoint. A low value points to greater potency in that assay.

In test [1] the test system is Rattus norvegicus. The experiment in a line: In vivo percent change of total cholesterol compared to control at a dose 30 mg/Kg in rats fed with cholic acid (0.5%), cholesterol (1.5%) and peanut oil (5.5%). Format: functional.
For test [2], the target named is O-acyltransferase (Oryctolagus cuniculus, UniProt G1SFD9). Description: In vitro inhibitory activity against ACAT was determined in rabbit intestinal microsome from cholesterol-fed animals. Format: microsomes, Intestine.
The test system of test [3] is Rattus norvegicus. Description: Compound was evaluated in vivo for percent change of total cholesterol compared to control at a dose 30 mg/Kg in rats fed with cholic acid (0.5%), cholesterol (1.5%) and peanut oil (5.5%); No change. Type of test: functional, organism-based.

Activity calls are given as the source filed them. The rule behind the calls is not given here.

Sequence of O-acyltransferase (G1SFD9 1-524): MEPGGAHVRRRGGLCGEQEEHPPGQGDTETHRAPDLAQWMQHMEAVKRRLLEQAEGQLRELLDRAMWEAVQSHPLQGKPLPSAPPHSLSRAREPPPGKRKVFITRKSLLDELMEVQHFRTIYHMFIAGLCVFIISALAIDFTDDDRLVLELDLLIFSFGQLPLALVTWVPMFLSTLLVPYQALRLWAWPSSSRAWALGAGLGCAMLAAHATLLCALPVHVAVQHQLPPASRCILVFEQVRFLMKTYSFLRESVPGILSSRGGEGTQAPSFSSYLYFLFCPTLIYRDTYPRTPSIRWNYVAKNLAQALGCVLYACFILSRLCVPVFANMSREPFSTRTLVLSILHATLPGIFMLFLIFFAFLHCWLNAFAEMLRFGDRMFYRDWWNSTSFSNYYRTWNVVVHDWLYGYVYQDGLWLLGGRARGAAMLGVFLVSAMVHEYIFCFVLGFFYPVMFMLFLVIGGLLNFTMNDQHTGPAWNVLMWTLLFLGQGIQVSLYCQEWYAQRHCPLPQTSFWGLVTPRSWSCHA

Regarding `CC(C)c1cccc(C(C)C)c1NC(=O)NCC1CCc2ccccc21` (stereo unspecified), the Change in test [1] is on record as -49%. 0.027 µM corresponded to half-maximal inhibition in test [2] (IC50).

In the case of `COc1cccc2c1CCC(NC(=O)Nc1c(C(C)C)cccc1C(C)C)C2` (stereo unspecified), the Change in test [1] is recorded as -39%. 0.017 µM corresponded to half-maximal inhibition in test [2] (IC50).

With `CC(C)c1cccc(C(C)C)c1NC(=O)NCC1(O)CCc2ccccc21` (stereo unspecified), the Change result in test [3] is “inactive”. Besides, in test [2], the IC50 was found to be 0.81 µM.

For the compound `CC(C)c1cccc(C(C)C)c1NC(=O)NC1CCc2ccccc2C1` (stereo unspecified), the Change in test [1] is on record as -26%. Also, the IC50 in test [2] stood at 0.063 µM.

Consider `CC(C)c1cccc(C(C)C)c1NC(=O)NC1CCc2ccccc2C12CCCC2` (stereo unspecified), for which, in test [1], the Change was -49%. Moreover, in test [2], the IC50 stood at 0.031 µM.

As for `CC(C)c1cccc(C(C)C)c1NC(=O)NOCc1cccc2ccccc12`, in test [1], the Change is reported as -32%.

On to `CC(C)c1cccc(C(C)C)c1NC(=O)NCC1(c2ccccc2)Cc2ccccc2C1`, for which the Change in test [1] is listed as -67%. The compound also returned a half-inhibitory concentration (IC50) in test [2] of 0.027 µM.

As to `CC(C)c1cccc(C(C)C)c1NC(=O)NCC(c1ccccc1)c1ccccc1`, the Change in test [1] is recorded as -73%.

Regarding `CC(C)c1cccc(C(C)C)c1NC(=O)NC1CCc2ccccc21` (stereo unspecified), in test [3], the Change result was “inactive”. For the same compound, the IC50 in test [2] turned out to be 0.91 µM.

Turning to `CC(C)c1cccc(C(C)C)c1NC(=O)NCCc1ccc2ccccc2c1`, in test [1], the Change is listed as -54%.

Consider `CC(C)c1cccc(C(C)C)c1NC(=O)NC1Cc2ccccc2C1`, for which the Change in test [1] is -8%. The same compound yielded an IC50 in test [2] of 0.096 µM.

As for `CC(C)c1cccc(C(C)C)c1NC(=O)NCC1(c2ccccc2)CCCC1`, the Change in test [1] is reported as -70%.

On to `CC(C)c1cccc(C(C)C)c1NC(=O)NCC1(O)CCCc2ccccc21` (stereo unspecified), for which, in test [3], the Change result is “inactive”. Also, in test [2], the IC50 is 0.35 µM.

For `CC(C)c1cccc(C(C)C)c1NC(=O)NCC1c2ccccc2Oc2ccccc21`, the Change in test [1] is recorded as -25%. The compound also registered an IC50 in test [2] of 0.042 µM.

Consider `CC(C)c1cccc(C(C)C)c1NC(=O)NCC1CCCc2ccccc21` (stereo unspecified), for which, in test [1], the Change is given as -47%. The IC50 in test [2] came to 0.036 µM.

With `CC(C)c1cccc(C(C)C)c1NC(=O)NCC1c2ccccc2-c2ccccc21`, the Change in test [1] is reported as -41%.

In the case of `CC(C)c1cccc(C(C)C)c1NC(=O)NOC(c1ccccc1)c1ccccc1`, the Change in test [1] is -67%.

As for `CC(C)c1cccc(C(C)C)c1NC(=O)NCC1(c2ccc(N(C)C)cc2)CCCC1` [NEVANIMIBE], in test [1], the Change is -76%.

On to `CC(C)c1cccc(C(C)C)c1NC(=O)NCCc1cccc2ccccc12`, for which the Change in test [1] is recorded as -32%.

Regarding `CC(C)c1cccc(C(C)C)c1NC(=O)NC1COc2ccccc2C1` (stereo unspecified), the Change in test [1] is given as -20%. 0.11 µM corresponded to half-maximal inhibition in test [2] (IC50).

With `CC(C)c1cccc(C(C)C)c1NC(=O)NCCc1ccccc1`, in test [1], the Change is -16%.

As for `CC(C)c1cccc(C(C)C)c1NC(=O)NCc1cccc2ccccc12`, the Change in test [1] is recorded as -53%. In test [2], half-maximal inhibition (IC50) was put at 0.034 µM.

As for `CC(C)c1cccc(C(C)C)c1NC(=O)NC1CCCc2ccccc21` (stereo unspecified), the Change result in test [3] was “inactive”.

In the case of `CC(C)c1cccc(C(C)C)c1NC(=O)NCC(c1ccccc1)(c1ccccc1)c1ccccc1`, the Change in test [1] is listed as -68%. Further, 0.091 µM corresponded to half-maximal inhibition in test [2] (IC50).

Turning to `CC(C)c1cccc(C(C)C)c1NC(=O)NOC(c1ccccc1)(c1ccccc1)c1ccccc1`, the Change in test [1] is recorded as -30%.

As for `CC(C)c1cccc(C(C)C)c1NC(=O)NCC1=CCCc2ccccc21`, the Change in test [1] is recorded as -33%. Besides, in test [2], the midpoint of inhibition, the IC50, lay at 0.029 µM.
